Converted amounts (≈) assume the structure as drawn. Read-outs that look alike come from different tables or passages of the source.
How the values were obtained:
[1] = test system: Mycobacterium tuberculosis H37Rv strain; assay: Anti-tubercular alamar blue microplate MIC; assay type: cell-based; conditions: 168 h, M. tuberculosis H37Rv, seven days at 37° C., read-out: anti-mycobacterial activity (MIC)
[2] = test system: Klebsiella pneumonia MTCC 618; assay: Antibacterial MIC, CLSI M07-A10 dilution; assay type: cell-based; conditions: Klebsiella pneumoniae, MTCC618
DNA gyrase from E. coli = target: T1, DNA gyrase from E. coli (Escherichia coli, UniProt P0AES4+P0AES6); assay: E. coli DNA gyrase inhibition (Inspiralis assay); assay type: biochemical
T1 construct: purchased Inspiralis
T1 sequence (P0AES4 whole entry, one chain of several): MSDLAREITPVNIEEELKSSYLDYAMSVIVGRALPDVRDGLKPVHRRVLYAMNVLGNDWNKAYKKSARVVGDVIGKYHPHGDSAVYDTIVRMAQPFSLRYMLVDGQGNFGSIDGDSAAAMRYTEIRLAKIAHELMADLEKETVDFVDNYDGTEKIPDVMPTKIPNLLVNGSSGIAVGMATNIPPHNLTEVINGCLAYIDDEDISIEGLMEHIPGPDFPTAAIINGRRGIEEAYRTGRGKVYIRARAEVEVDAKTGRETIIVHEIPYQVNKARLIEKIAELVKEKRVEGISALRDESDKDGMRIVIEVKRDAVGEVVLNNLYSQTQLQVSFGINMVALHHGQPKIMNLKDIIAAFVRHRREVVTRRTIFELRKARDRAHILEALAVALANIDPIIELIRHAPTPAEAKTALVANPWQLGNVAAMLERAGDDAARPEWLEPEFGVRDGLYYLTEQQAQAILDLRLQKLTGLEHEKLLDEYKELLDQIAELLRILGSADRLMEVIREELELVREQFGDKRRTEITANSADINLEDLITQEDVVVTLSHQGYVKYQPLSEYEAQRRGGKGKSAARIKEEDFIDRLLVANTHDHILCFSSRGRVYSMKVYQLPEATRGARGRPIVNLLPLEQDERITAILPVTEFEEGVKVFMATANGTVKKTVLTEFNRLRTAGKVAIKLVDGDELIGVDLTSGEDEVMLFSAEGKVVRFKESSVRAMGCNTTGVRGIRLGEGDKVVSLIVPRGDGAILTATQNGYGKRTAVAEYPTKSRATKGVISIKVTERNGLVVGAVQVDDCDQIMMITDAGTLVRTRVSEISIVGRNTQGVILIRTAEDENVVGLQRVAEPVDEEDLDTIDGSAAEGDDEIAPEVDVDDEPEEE
Method: Inhibitory potencies were investigated utilizing the Inspiralis assay on streptavidin-coated 96-well microtiter plates. First, the plates were rehydrated with buffer (20 mM Tris-HCl with pH 7.6, 0.01% w/v BSA, 0.05% v/v Tween 20, 137 mM NaCl) and the biotinylated oligonucleotide was then immobilized. After washing off the unbound oligonucleotide, the enzyme test was performed. The reaction volume of 30 μL in buffer (35 mM Tris×HCl with pH 7.5, 4 mM MgCl2, 24 mM KCl, 2 mM DTT, 1.8 mM spermidine, 1 mM ATP, 6.5% w/v glycerol, 0.1 mg/mL albumin) contained 1.5 U of DNA gyrase from E. coli, 0.75 μg of relaxed pNO1 plasmid, and 3 μL solution of the inhibitor in 10% DMSO and 0.008% Tween 20. Reaction solutions were incubated at 37° C. for 30 min. After that, the TF buffer (50 mM NaOAc with pH 5.0, 50 mM NaCl and 50 mM MgCl2) was added to terminate the enzymatic reaction. After additional incubation for 30 min at rt, during which biotinoligonucleotide-plasmid triplex was formed, the unbound plasmid was washed off using TF buffer and SybrGOLD in T10 buffer (10 mM Tris HCl with pH 8.0 and 1 mM EDTA) was added. The fluorescence was measured with a microplate reader (BioTek Synergy H4, excitation: 485 nm, emission: 535 nm). Initial screening was done at 100 or 10 μM concentration of inhibitors. […] GraphPad Prism software was used to calculate the IC50 values. […]

[3] = test system: Pseudomonas aeruginosa MTCC 741; assay: Antibacterial MIC, CLSI M07-A10 dilution; assay type: cell-based; conditions: MTCC741
[4] = test system: Staphylococcus epidermidis; assay: Antibacterial MIC, CLSI M07-A10 dilution; assay type: cell-based
[5] = test system: Staphylococcus aureus ATCC BAA-1556 (MERSA resistant); assay: Antibacterial MIC, CLSI M07-A10 dilution; assay type: cell-based; conditions: ATCCBAA1556
[6] = test system: Staphylococcus aureus ATCC 29213; assay: Antibacterial MIC, CLSI M07-A10 dilution; assay type: cell-based; conditions: ATCC29213
[7] = test system: Bacillus subtilis MTCC 441; assay: Antibacterial MIC, CLSI M07-A10 dilution; assay type: cell-based; conditions: MTCC441
[8] = test system: Enterococcus faecium ATCC 35667; assay: Antibacterial MIC, CLSI M07-A10 dilution; assay type: cell-based; conditions: ATCC35667
[9] = test system: Enterococcus faecium ATCC 51559 (VRE resistant); assay: Antibacterial MIC, CLSI M07-A10 dilution; assay type: cell-based
[10] = test system: Escherichia coli MTCC 443; assay: Antibacterial MIC, CLSI M07-A10 dilution; assay type: cell-based; conditions: MTCC443

Structure (SMILES) | MIC [1] [µg/mL] | MIC ([2]; Klebsiella pneumonia MTCC 618, read-out: MIC) [µg/mL] | IC50 (DNA gyrase from E. coli) [nM] | MIC ([3]; Pseudomonas aeruginosa MTCC 741, read-out: MIC) [µg/mL] | MIC ([4]; read-out: MIC) [µg/mL] | MIC [5] [µg/mL] | MIC [6] [µg/mL] | MIC ([7]; Bacillus subtilis MTCC 441, read-out: MIC) [µg/mL] | MIC ([8]; Enterococcus faecium ATCC 35667, read-out: MIC) [µg/mL] | MIC ([9]; Enterococcus faecium ATCC 51559 (VRE resistant), read-out: MIC) [µg/mL] | MIC ([10]; Escherichia coli MTCC 443, read-out: MIC) [µg/mL] | MIC [2] [µg/mL] | MIC ([3]; Pseudomonas aeruginosa) [µg/mL] | MIC [4] [µg/mL] | MIC ([7]; Bacillus subtilis) [µg/mL] | MIC ([8]; Enterococcus faecium) [µg/mL] | MIC ([9]; Enterococcus faecium) [µg/mL] | MIC ([10]; Escherichia coli) [µg/mL]
CCCCCN(C)Cc1cc(C(=O)O)ccc1-c1cc2cc3cc(F)cc(NC)c3nc2[nH]1 [Compound 6, 4-(6-fluoro-8-(methylamino)-1H-pyrrolo[2,3-b]quinolin-2-yl)-3-((methyl(pentyl)amino)methyl)benzoic acid] | 4 (≈ 8.92 µM) | 1 (≈ 2.23 µM) | 25 | 0.75 (≈ 1.67 µM) | 1 (≈ 2.23 µM) | 0.75 (≈ 1.67 µM) | 0.75 (≈ 1.67 µM) | 0.5 (≈ 1.11 µM) | 0.75 (≈ 1.67 µM) | 1 (≈ 2.23 µM) | 4 (≈ 8.92 µM) | – | – | – | – | – | – | –
CN[C@H](CC(C)C)C(=O)N[C@H]1C(=O)N[C@@H](CC(N)=O)C(=O)N[C@H]2C(=O)N[C@H]3C(=O)N[C@H](C(=O)N[C@H](C(=O)O)c4cc(O)cc(O)c4-c4cc3ccc4O)[C@H](O)c3ccc(c(Cl)c3)Oc3cc2cc(c3O[C@@H]2O[C@H](CO)[C@@H](O)[C@H](O)[C@H]2O[C@H]2C[C@](C)(N)[C@H](O)[C@H](C)O2)Oc2ccc(cc2Cl)[C@H]1O [Vancomycin, reference compound] | – | – | – | – | – | – | – | – | – | – | – | > 128 | > 128 | 1 (≈ 0.69 µM) | 0.5 (≈ 0.345 µM) | 0.5 (≈ 0.345 µM) | > 128 | > 128

Reference: patent US11731970B1, “Pyrrolo[2,3-b]quinoline compounds as antibacterial agents” (KING FAISAL UNIVERSITY, priority 2023, dated 2023)
